# Paper PMC12080252, “Daphnia magna as an Alternative Model for (Simultaneous) Bioaccumulation and Chronic Toxicity Assessment—Controlled Exposure Study Indicates High Hazard of Heterocyclic PAHs” (Environmental Science & Technology, 2025)
# Several values for one entry are separate records, joined by “and”; a condition that tells them apart may be missing. Equal entries are not always repeated.
# How the values were obtained:
# [1] = Chronic reproduction toxicity test (OECD 211) with passive dosing; format: in vivo, Daphnia magna; conditions: Daphnia magna, in vivo, other: waterborne exposure by passive dosing from PDMS disks, 21-day test, read-out: % offspring mortality of total offspring
# Experimental: (§1) Chronic toxicity tests with D. magna were performed according to the OECD guideline 211^2 using the passive dosing method. Two days before the tests, the exposure solution was predosed by shaking 10 PDMS disks loaded with the test substance in 1 L of medium for 48 h. Each test vessel (250 mL) was first flushed with the dosed solution to equilibrate the vessel walls, then filled with 100 mL of test solution, one PDMS disk, and one juvenile D. magna (<24 h old). The tests were conducted in loosely closed bottles to allow for adequate gas exchange and limit evaporation. The exposure medium was changed three times per week, and the animals were fed D. subspicatus daily (0.2 mg C/Daphnia/day). The number of offspring per adult and behavioral or physiological effects (e.g., size, movement, unhatched eggs) were recorded daily (except weekends). Dissolved oxygen, pH and temperature were also measured each week.
# (§2) Tests were performed under static conditions (20 °C, 16:8 h light/dark cycle, 1 klux). Each compound was tested in 10 replicates for controls and limit tests (a single high concentration exposure to screen for significant toxic effects) and with 6 or 10 replicates for concentration–response tests. Reuse of silicone disks was included in some experiments (Table S3). Reproductive inhibition was assessed by counting offspring over 21 days. The number of offspring per mother in treatment groups was compared to controls, and the percent inhibition per replicate was used to generate concentration–response curves. A minimum of five concentrations per compound were tested to determine EC10, EC20, and EC50 values. For each test, three sets of polymers were rotated between loading, dosing, and exposure stages (Figure S2). Initial (before animal and food addition) and final (after 2–3 days of exposure, just before the medium change) water concentrations (CW) were monitored, with the latter collected after centrifugation to remove biomass (e.g., algae, carapaces, or feces).
# (§3) All data are presented as average ± standard deviation. Student’s t test was used to analyze significance (p-value >0.05 considered insignificant). Concentration–response curve parameters (effective concentrations and confidence limits) and plots were generated using GraphPad Prism software (V6.01, GraphPad Software, La Jolla, CA, USA). The exposure concentrations were log10 transformed before fitting. Then a four parameters logistic model with variable slope was used to obtain EC10, EC20 and EC50 (see section S5 in SI file for details). Effective chemical activities (EA50) for chronic toxicity were calculated as follows: [drawing 1] 1 […]
# (§4) S5. Concentration-response curve (CRC) fitting procedure
# (§5) GraphPad Prism version 9.5.1 was used to fit CRC and obtain EC10, EC20, EC50 values and their confidence intervals. The exposure concentrations were log10 transformed before fitting. Then a four parameters logistic model with variable slope was used that describes the response as a function of following four parameters: minimum response (the Bottom), maximum response (the Top), the concentration required to cause a response half-way between the minimum and maximum (the EC50) and the slope of the curve […]
# (§6) concentration. The Top was constrained to 100, the Bottom was constrained to 0, the HillSlope was not […]
# (§7) !"# %& = !"# %&* − , × !"# 3 * 4
# (§8) (, + ,((!"# %&'(<=)×-.!!/!"01)
# (§9) Figure S7 Concentration-response curves of four NSO-PAHs based on reproductive inhibition during 21-day chronic toxicity tests with D. magna.
# (§10) (1 picture or pasted object on this page, not shown here)
# [2] = tested on: Daphnia magna; experiment: as above; format: in vivo; conditions: for EC10: 21-day reproduction inhibition; for % inhibition, avr.: average of vessels; for % inhibition (of reproduction, per vessel): relative to controls; for wet weight of parent daphnids, change relative to control: end of 21-d exposure
# Experimental: as §1, §2, §3, §4, §5, §6, §7, §8, §9, §10
# [3] = tested on: D. magna; experiment: PNEC and risk quotient estimation; set-up: species or system Daphnia magna; conditions: environmental concentration of surrogate (CRB, DBF, DBT) / PNEC
# Text: To ensure a precautionary approach, an AF of 100 was applied, which accounts for interspecies variability and uncertainties in extrapolating laboratory findings to real-world conditions.
# Environmental concentration (EC) data are obtained from A CRB, B DBF, and C DBT by choosing the highest
# concentration that remains below the solubility limit of the respective NSO-PAH, as described in Reference 24.
# [4] = cited from earlier work
# [5] = Test 5-BCRB, avr. medium concentration 68.16 µg/L, 21 days
# [6] = Test 5-BCRB, avr. medium concentration 68.16 µg/L, 21 days, one value per vessel
smiles,measurement,setting,value
"c1ccc2c(c1)ccc1[nH]c3ccccc3c12 [BCRB, 7H-benzo[c]carbazole]","mortality at 21 days, 4.1 µg/L",[1]; 4.1 µg/L (Fig. S8),3.3%
same,"mortality at 21 days, 9.8 µg/L",[1]; 9.8 µg/L (Fig. S8),4%
same,"mortality at 21 days, 21.8 µg/L",[1]; 21.8 µg/L (Fig. S8),2.9%
same,"mortality at 21 days, 44.6 µg/L",[1]; 44.6 µg/L (Fig. S8),5.6%
same,"mortality at 21 days, 68.2 µg/L",[1]; 68.2 µg/L (Fig. S8),32.4%
same,EC10,[2]; 97.5-2.5% confidence interval in brackets,15.0 (8.6-24.3) μg L^-1
same,EC10,[2]; confidence interval in brackets,69.2 (39.7-111.8) nmol L^-1
same,growth of parent D. magna (wet weight),"[2]; 21-day test, p-value <0.05",significantly inhibited D. magna growth
same,"LOEC (lowest observed effect concentration, reproduction inhibition)","[2]; 21 days, p-value <0.05 vs controls",9.8 μg L^–1
same,%offspring mortality,"[2]; BCRB 3.99 µg/L, 21 days",3.29%
same,"% inhibition, avr.","[2]; BCRB 3.99 µg/L, 21 days",0.7%
same,#average live offspring,"[2]; BCRB 3.99 µg/L, 21 days, per mother",83
same,#total live offspring,"[2]; BCRB 3.99 µg/L, 21 days, sum of all vessels",499
same,%offspring mortality,"[2]; BCRB 9.55 µg/L, 21 days",4.04%
same,"% inhibition, avr.","[2]; BCRB 9.55 µg/L, 21 days",15.0%
same,#average live offspring,"[2]; BCRB 9.55 µg/L, 21 days, per mother",71
same,"% inhibition (of reproduction, per vessel)","[2]; BCRB 9.55 µg/L, 21 days, single vessels 1-6",6.9%
same,#total live offspring,"[2]; BCRB 9.55 µg/L, 21 days, sum of all vessels",427
same,%offspring mortality,"[2]; BCRB 21.94 µg/L, 21 days",2.91%
same,"% inhibition, avr.","[2]; BCRB 21.94 µg/L, 21 days",20.4%
same,#average live offspring,"[2]; BCRB 21.94 µg/L, 21 days, per mother",67
same,#total live offspring,"[2]; BCRB 21.94 µg/L, 21 days, sum of all vessels",400
same,%offspring mortality,"[2]; BCRB 43.46 µg/L, 21 days",5.62%
same,"% inhibition, avr.","[2]; BCRB 43.46 µg/L, 21 days",39.8%
same,#average live offspring,"[2]; BCRB 43.46 µg/L, 21 days, per mother",50
same,"% inhibition (of reproduction, per vessel)","[2]; BCRB 43.46 µg/L, 21 days, single vessels 2-6",39.1% and 54.6% and 28.4% and 37.9%
same,#total live offspring,"[2]; BCRB 43.46 µg/L, 21 days, sum of all vessels",252
same,Survival of the mother animal,"[2]; BCRB 43.46 µg/L, vessel 1, day 5",dead
same,"Total #offspring per mother (live, per vessel)","[2]; BCRB avr. medium concentration 3.99 µg/L (methanol for dosing 0.063 g/L), 21 days, single vessels 1-6",104 and 86 and 87 and 79 and 68 and 75
same,"Total #offspring per mother (live, per vessel)","[2]; BCRB avr. medium concentration 9.55 µg/L (methanol for dosing 0.125 g/L), 21 days, single vessels 1-6",68 and 63 and 78 and 79 and 61
same,"Total #offspring per mother (live, per vessel)","[2]; BCRB avr. medium concentration 21.94 µg/L (methanol for dosing 0.25 g/L), 21 days, single vessels 1-6",67 and 73 and 77 and 64 and 63 and 56
same,"Total #offspring per mother (live, per vessel)","[2]; BCRB avr. medium concentration 43.46 µg/L (methanol for dosing 0.5 g/L), 21 days, single vessels 2-6",51 and 38 and 60 and 52
same,EA50 (effective chemical activity),"[2]; EC50/subcooled liquid solubility, eq 1",0.004 unitless
same,%offspring mortality,[2]; [5],32.43%
same,#total live offspring,"[2]; Test 5-BCRB, avr. medium concentration 68.16 µg/L, 21 days, all vessels",75
same,"% inhibition, avr.",[2]; [5],82.1%
same,"% inhibition (of reproduction, per replicate vessel)",[2]; [6],82.1% and 86.9% and 83.3% and 74.9%
same,Total #dead offspring per mother (per replicate vessel),[2]; [6],9 and 2 and 8
same,#average live offspring,"[2]; Test 5-BCRB, avr. medium concentration 68.16 µg/L, 21 days, per surviving mother",15
same,Total #offspring per mother (per replicate vessel),"[2]; Test 5-BCRB, avr. medium concentration 68.16 µg/L, methanol dosing conc. 1 g/L, 21 days, one value per vessel",15 and 11 and 14 and 21
same,Mother survival (parent mortality),"[2]; Test 5-BCRB, avr. medium concentration 68.16 µg/L, vessel 3, day 5",dead
same,CTLBB (critical target lipid body burden),[2]; derived from chronic EC10 using eq 3,12.6 μmol g^-1 octanol
same,"wet weight of parent daphnids, change relative to control",[2]; 4.1 µg/L (Fig. S9),+17%
same,"wet weight of parent daphnids, change relative to control",[2]; 9.8 µg/L (Fig. S9),-14%
same,"wet weight of parent daphnids, change relative to control",[2]; 21.8 µg/L (Fig. S9),-15%
same,"wet weight of parent daphnids, change relative to control",[2]; 44.6 µg/L (Fig. S9),-34%
same,"wet weight of parent daphnids, change relative to control",[2]; 68.2 µg/L (Fig. S9),-77%
same,swimming behavior,"[2]; two highest exposure concentrations, 22 and 68 μg L^–1",induced locomotor changes
same,RQ (EC/PNEC),[3],4000
same,SW (water solubility),[4]; measured in previous work,0.80 µg/mL
same,log KOW,[4]; n-octanol-water partition coefficient,5.22
same,log KOC,[4]; organic carbon-water partition coefficient,4.84
